Assay results from patent publication US20230203482A1, “Methods of Rescuing Stop Codons via Genetic Reassignment with ACE-tRNA” (THE WISTAR INSTITUTE OF ANATOMY AND BIOLOGY, priority 2017, published 2023).

B1: Glychr19.trna2: top performing glycine ACE-tRNA UGA suppressor, SEQ ID NO: 53 (nucleic acid)
chain: GCGTTGGTGGTATAGTGGTTAGCATAGCTGCCTTCAAAGCAGTTGACCCGGGTTCGATTCCCGGCCAACGCA
modifications: chemistry not fully specified

System: native stop codons (TAA, TAG, TGA) of HEK293 transcripts
Assay: Ribosome footprint profiling of transcriptome-wide 3′UTRs
Assay type: cell-based, human
Details: for ribosome occupancy at each nucleotide in the 3′UTR downstream of stop codons: HEK293, log 2-fold change versus control; for readthrough of native stop codons / global translation termination: HEK293, summary in discussion
Description: The question was raised whether ACE-tRNAs that show efficacious suppression of premature stop codons may also induce global readthrough of native stop codons. To address this potential “off target” suppression, a transcriptome-wide quantitative profile of actively engaged ribosomes on all cellular transcripts was obtained by generating libraries of ribosome footprints from HEK293 cells expressing exogenous ACE-tRNAs or a control mock plasmid (puc57GG). Streptomycin was removed from the growth media to prevent readthrough artifacts. For comparison, the ribosome footprint library was also generated from cells in the presence or absence of G418 (150 μM, 48 hours). […] Only transcripts with a minimum threshold of 5 RPKM in the coding sequence and 0.5 RPKM in the 3′UTR in two replicate libraries were included for the quantitation comparison (254 transcripts in G418 and 495-748 transcripts in ACE-tRNAs). […] ACE-tRNAs examined here had no detectable change of 3′UTR ribosome density with the exception of ACE-tRNA Gln-UAA and Arg-UGA which induced approximately a 2-fold increase in 3′UTR ribosome density for the cognate stop codon complimentary to the ACE-tRNA anticodon. Understanding the biological significance of 2-fold readthrough of protein stops will require further study, but this effect is substantially lower compared to the 100- to 1000-fold suppression of PTC for the same ACE-tRNA.
Multiple in-frame stop codons are frequently found at the end of genes^37-39 and may cause a minor difference in overall 3′UTR ribosome density for ACE-tRNA and G418 treatment. Ribosome occupancy was examined at each nucleotide in the 3′UTR within a 60 nt region downstream of the stop codons. […] Reads were normalized per total million-mapped reads, compared against control cells, and reported as a log 2-fold change as in panel A. More than 5,200 transcripts were mapped to at least 1 footprint in the region of interest. […] Taken together, the ribosome profiling data argue that efficiency of native stop codon suppression by ACE-tRNAs is generally low, and markedly less than the level of PTC suppression.
Ribosome Footprint Profiling Library preparation. HEK293 cells transiently transfected with ACE-tRNAs and control plasmid (puc57GG) were grown in standard grown media in the absence of Pen-Strep for 48 h. Libraries were prepared as described^55, with a few modifications. Briefly, cells were rapidly cooled by addition of ice-cold PBS, lysed in lysis buffer (20 mM Tris-HCl/pH7.4, 150 mM NaCl, 5 mM MgCl2, 1 mM DTT, 1% (v/v) Triton X-100, and 25 U ml^−1 Turbo DNase I) for 10 min on ice, and triturated with ten times through a 26-G needle. After clearance by centrifugation at 16,000 g for 10 min at 4° C., the lysates were digested with 100 U RNase I (Ambion, USA) per A260 lysate at room temperature for 45 min with gentle agitation prior to adding 200 U RiboLock RNase Inhibitor (Thermo Scientific). Ribosome protected mRNA fragments were then isolated by loading lysates onto a 1M sucrose cushion prepared in modified polysome buffer (20 mM Tris-HCl/pH7.4, 150 mM NaCl, 8.5 mM MgCl2, 0.5 mM DTT, 20 U ml^−1 RiboLock RNase Inhibitor) and centrifugated at 70,000 rpm at 4° C. for 2 h using a Beckmen TLA-110 rotor. Ribosome pellets containing mRNA footprints were extracted using TRIzol and separated on a denaturing 12% polyacrylamide gel containing 8M urea. RNA fragments with sizes ranging from 26 to 34 nt were manually excised from the gel stained with SYBR Gold (Invitrogen) and isolated to generate the ribosome-protected fragment library. Contaminating rRNA fragments depleted using a Ribo-Zero kit (Illumina). 3′ Oligonucleotide adaptor ligation, reverse transcription, circularization, and secondary rRNA depletion using biotinylated rRNA depletion oligos (Table 9) were performed as described^55. Libraries were barcoded using indexing primers for each sample during PCR amplification. […]

Molecule	ribosome occupancy at each nucleotide in the 3′UTR downstream of stop codons	readthrough of native stop codons / global translation termination
Trpchr17.trna39: top performing tryptophan ACE-tRNA UGA suppressor, SEQ ID NO: 48	no observable change of ribosome occupancy	no significant effect on global translation termination
B1	no observable change of ribosome occupancy	no significant effect on global translation termination
